In one data set the test system is SK-OV-3. As to the kind of experiment: Cytotoxicity against human SKOV3 cells after 48 hrs by MTT assay. The data set is classed as functional, cell-based. The conditions noted are these: SK-OV-3, 48 h. Background: Tetrazolium assays rely on reduction of a dye to a coloured formazan, in cell work by metabolically active cells.
The subject of another data set is BGC-823. Nature of the data set: Cytotoxicity against human BGC823 cells after 48 hrs by MTT assay. In kind it is functional, cell-based. The note with it: BGC-823, 48 h.
A short description of data set [1]: Solubility of the compound in water. In kind it is physicochemical.
A further data set relates to HepG2. Nature of the data set: Cytotoxicity against human HepG2 cells after 48 hrs by MTT assay. In kind it is functional, cell-based. The note with it: HepG2, 48 h.
A further data set has as its system RKO. Nature of the data set: Cytotoxicity against human RKO cells after 48 hrs by MTT assay. In kind it is functional, cell-based.
A further data set has as its system HCT-116. As to the kind of experiment: Cytotoxicity against human HCT116 cells after 48 hrs by MTT assay. The conditions noted are these: HCT-116, 48 h. The data set is classed as functional, cell-based.
In the next data set the test system is NCI-H1650. Nature of the data set: Cytotoxicity against human NCI-H1650 cells after 48 hrs by MTT assay. The data set is classed as functional, cell-based. The note with it: NCI-H1650, 48 h.
A further data set has as its system DLD-1. Nature of the data set: Cytotoxicity against human DLD1 cells after 48 hrs by MTT assay. The data set is classed as functional, cell-based. The conditions noted are these: DLD-1, 48 h.

Experimental findings from ChEMBL document CHEMBL4382254, “Design, synthesis, structure-activity relationships and mechanism of action of new quinoline derivatives as potential antitumor agents” (Eur J Med Chem, 2019) are described below.

What is called IC50 is the midpoint of a concentration-inhibition curve. A high value points to lower potency. The solubility is how much of the substance goes into solution per volume. Low readings indicate little dissolved substance, high ones much dissolved substance.

Turning to `CCOc1ccc2c(NCCN(C)C)ccnc2c1`, the 50% inhibitory concentration (IC50) in the data set on SK-OV-3 came to 4620 nM; in the data set on BGC-823 it was 2520 nM; with HepG2, 5680 nM; in the data set with RKO, 3650 nM; with HCT-116, 2570 nM; with NCI-H1650, 3490 nM. Also, the IC50 in the data set with DLD-1 is 6240 nM. In data set [1], this molecule showed a solubility greater than 10000 µg/mL.
For the molecule `Clc1ccnc2cc(OCCc3ccccc3)ccc12`, the IC50 in the data set on SK-OV-3 is 2010 nM; with BGC-823, 2010 nM; with HepG2, 3310 nM; in the data set on RKO it was 2560 nM; in the data set on HCT-116 it was 2180 nM; in the data set with NCI-H1650, 2300 nM. This molecule also had an IC50 with DLD-1 of 3380 nM.
For the molecule `CCCCCCOc1ccc2c(NCCN(C)C)ccnc2c1`, the IC50 in the data set on SK-OV-3 came out at 1860 nM; in the data set with BGC-823, 1090 nM; in the data set with HepG2, 1370 nM; in the data set on RKO, 1120 nM; with HCT-116 it was 850 nM; in the data set on NCI-H1650 it was 930 nM. The same molecule displayed an IC50 with DLD-1 of 1870 nM. Besides, in data set [1], the solubility is greater than 10000 µg/mL.
`CN(C)CCCNc1ccnc2cc(OCc3ccc(F)cc3)ccc12`: the IC50 in the data set on SK-OV-3 stood at 1280 nM; in the data set on BGC-823 it was 490 nM; in the data set with HepG2, 1570 nM; in the data set with RKO, 1230 nM; with HCT-116, 740 nM; with NCI-H1650 it was 940 nM. In the data set on DLD-1, this molecule yielded an IC50 of 2540 nM. In data set [1], this molecule yielded a solubility greater than 10000 µg/mL.
Turning to `C=CCOc1ccc2c(NCCN(C)C)ccnc2c1`, the IC50 worked out at 1560 nM in the data set on SK-OV-3; 1360 nM in the data set with BGC-823; 1660 nM with HepG2; 1270 nM in the data set on RKO; 860 nM in the data set on HCT-116; 930 nM in the data set with NCI-H1650. Also, in the data set with DLD-1, half-maximal inhibition (IC50) required 1530 nM. This molecule displayed a solubility in data set [1] greater than 10000 µg/mL.
Take `CC(C)Oc1ccc2c(Cl)ccnc2c1`: the IC50 in the data set with SK-OV-3 amounted to 3060 nM; in the data set on BGC-823, 2630 nM; with HepG2, 2050 nM; in the data set on RKO, 2690 nM; with HCT-116, 2590 nM; in the data set with NCI-H1650, 2310 nM. Inhibition with DLD-1 was half-maximal at 3240 nM (IC50).
As for `CCOc1ccc2c(Cl)ccnc2c1`, the IC50 in the data set with SK-OV-3 was 3460 nM; in the data set on BGC-823, 3910 nM; in the data set on HepG2, 2660 nM; with RKO it was 3870 nM; in the data set with HCT-116, 3160 nM; with NCI-H1650, 3340 nM. The molecule further came in with an IC50 in the data set on DLD-1 of 2750 nM.
As for `CCCCOc1ccc2c(Cl)ccnc2c1`, the IC50 in the data set with SK-OV-3 was 4130 nM; in the data set with BGC-823 it was 3610 nM; in the data set on HepG2, 2640 nM; in the data set on RKO, 3050 nM; in the data set with HCT-116, 2740 nM; with NCI-H1650, 2570 nM. In the data set on DLD-1, this molecule yielded an IC50 of 3780 nM.
As for `C=CCOc1ccc2c(NCCCN(C)C)ccnc2c1`, the IC50 with SK-OV-3 is 4250 nM; in the data set on BGC-823 it was 6680 nM; in the data set on HepG2, 3990 nM; with RKO, 3560 nM; in the data set with HCT-116 it was 2100 nM; in the data set on NCI-H1650 it was 3120 nM. This molecule yielded an IC50 in the data set on DLD-1 of 5180 nM. For the same molecule, the solubility in data set [1] is greater than 10000 µg/mL.
For the molecule `CC(C)COc1ccc2c(Cl)ccnc2c1`, the IC50 with SK-OV-3 came out at 3190 nM; in the data set on BGC-823, 3030 nM; in the data set on HepG2, 2250 nM; with RKO, 2680 nM; in the data set with HCT-116, 2490 nM; in the data set with NCI-H1650, 2100 nM. In the data set with DLD-1, this molecule displayed an IC50 of 3100 nM.
`COc1ccc2c(Cl)ccnc2c1`: the IC50 was greater than 10000 nM in the data set on SK-OV-3; greater than 10000 nM with BGC-823; 6070 nM in the data set with HepG2; 9650 nM in the data set with RKO; 8820 nM in the data set with HCT-116; 8160 nM in the data set with NCI-H1650. Besides, the IC50 in the data set on DLD-1 was greater than 10000 nM.
Take `CCCCCCCCOc1ccc2c(Cl)ccnc2c1`: the IC50 in the data set on SK-OV-3 is 4300 nM; in the data set with BGC-823 it was 4300 nM; in the data set on HepG2, 2640 nM; in the data set with RKO it was 3640 nM; in the data set with HCT-116, 2820 nM; in the data set on NCI-H1650, 3240 nM. This molecule also came in with an IC50 with DLD-1 of 4500 nM.
In the case of `Fc1ccc(COc2ccc3c(Cl)ccnc3c2)cc1`, the 50% inhibitory concentration (IC50) with SK-OV-3 came to 2780 nM; in the data set with BGC-823, 2780 nM; in the data set on HepG2, 3010 nM; in the data set with RKO, 1980 nM; with HCT-116 it was 2070 nM; with NCI-H1650 it was 2230 nM. For the same molecule, half-maximal inhibition in the data set on DLD-1 (IC50) required 3230 nM.
Turning to `CCCCCCOc1ccc2c(Cl)ccnc2c1`, the IC50 was greater than 10000 nM in the data set with SK-OV-3; 2380 nM in the data set with BGC-823; 2420 nM in the data set with HepG2; 2720 nM in the data set with RKO; 2440 nM in the data set with HCT-116; 2080 nM in the data set on NCI-H1650. For the same molecule, the IC50 in the data set on DLD-1 came out at 2660 nM.
As for `C=CCOc1ccc2c(Cl)ccnc2c1`, the IC50 in the data set on SK-OV-3 worked out at 4030 nM; in the data set on BGC-823 it was 2930 nM; with HepG2 it was 2770 nM; in the data set with RKO, 2460 nM; in the data set on HCT-116, 2570 nM; in the data set with NCI-H1650, 2280 nM. Besides, half-maximal inhibition in the data set with DLD-1 (IC50) required 2890 nM.
As to `Oc1ccnc2cc(Cl)ccc12`, the IC50 in the data set with SK-OV-3, in the data set on BGC-823, with HepG2, in the data set on RKO, in the data set with HCT-116 and with NCI-H1650 was greater than 10000 nM in each case. The molecule further came in with an IC50 in the data set with DLD-1 greater than 10000 nM.
As for `Clc1ccnc2cc(OCc3ccccc3)ccc12`, the half-maximal inhibitory concentration (IC50) with SK-OV-3 is 5170 nM; in the data set on BGC-823, 5170 nM; in the data set on HepG2, 2680 nM; in the data set on RKO, 2410 nM; in the data set with HCT-116 it was 2470 nM; in the data set on NCI-H1650 it was 2720 nM. In addition, in the data set on DLD-1, the IC50 worked out at 3270 nM.
For `Clc1ccnc2cc(OCCCc3ccccc3)ccc12`, the IC50 with SK-OV-3 worked out at 3610 nM; with BGC-823 it was 2370 nM; with HepG2, 1780 nM; in the data set with RKO it was 1420 nM; in the data set with HCT-116, 800 nM; with NCI-H1650 it was 630 nM. The same molecule showed a half-inhibitory concentration (IC50) with DLD-1 of 2140 nM.
Consider `CN(C)CCNc1ccnc2cc(OCc3ccccc3)ccc12`, for which the IC50 stood at 2350 nM with SK-OV-3; 1250 nM in the data set on BGC-823; 3120 nM in the data set with HepG2; 2350 nM with RKO; 1980 nM with HCT-116; 1620 nM in the data set with NCI-H1650. For the same molecule, in the data set with DLD-1, half-maximal inhibition (IC50) was put at 2140 nM. Further, the solubility in data set [1] is greater than 10000 µg/mL.
In the case of `CCOc1ccc2c(NCCCN(C)C)ccnc2c1`, the IC50 in the data set with SK-OV-3 is 6780 nM; in the data set with BGC-823, 9810 nM; with HepG2, 5860 nM; in the data set on RKO it was 5240 nM; in the data set on HCT-116, 3380 nM; in the data set on NCI-H1650, 3830 nM. The IC50 with DLD-1 was determined as 8540 nM. For the same molecule, the solubility in data set [1] was greater than 10000 µg/mL.
